Columns and labels:
Format in all cases: functional
Rattus norvegicus [1] = assay: Elimination of D-xylose from 15 days old Sprague-Dawley suckling rat urine at 4 mg, po
Rattus norvegicus [2] = assay: Elimination of D-xylose from 18 days old Sprague-Dawley suckling rat urine at 4 mg, po
Rattus norvegicus [3] = assay: Elimination of D-xylose from 30 days old Sprague-Dawley suckling rat urine at 4 mg, po

SMILES	Activity (Rattus norvegicus [1]) [%]	Activity (Rattus norvegicus [2]) [%]	Activity (Rattus norvegicus [3]) [%]
OC[C@H]1O[C@@H](O[C@H]2[C@H](O)COC(O)[C@@H]2O)[C@H](O)[C@@H](O)[C@H]1O (some centres undefined)	23.3	20.63	19.39
OC[C@H]1O[C@@H](O[C@@H]2COC(O)[C@H](O)[C@H]2O)[C@H](O)[C@@H](O)[C@H]1O (some centres undefined)	23.66	6.99	3.05
OC[C@H]1O[C@@H](O[C@H]2C(O)OC[C@@H](O)[C@@H]2O)[C@H](O)[C@@H](O)[C@H]1O (some centres undefined)	23.1	20.71	9.43

Reference: ChEMBL document CHEMBL1149587 (2007)
